Patent US12240862B2, “Inhibitors of peptidylarginine deiminases” (Gilead Sciences, Inc., priority 2020, dated 2025)

Target: T1, human PAD4 (Homo sapiens, UniProt Q9UM07)
T1 construct: human PAD4 (NM_012387), A2P663, was PCR amplified; His-SUMO (N, cleaved yes); made in house; host or cells: E. coli BL21(DE3)
Assay: In vitro PAD4 BAEE biochemical assay
Settings: human PAD4, BAEE substrate; 5 nM PAD4, 2 mM calcium chloride, 3 mM BAEE; geometric mean of multiple experiments
Outline: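 Ammonia release from BAEE deimination monitored by o-phthalaldehyde amine coupling (1 h, 25 °C) after EDTA stop. Final conditions: 5 nM tag-free recombinant human PAD4 (E. coli), 2 mM CaCl2, 3 mM BAEE, pH 7.6 MOPS with DTT; 30 min compound preincubation, then 2 h reaction at 25 °C.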

T1 sequence (Q9UM07 2-663): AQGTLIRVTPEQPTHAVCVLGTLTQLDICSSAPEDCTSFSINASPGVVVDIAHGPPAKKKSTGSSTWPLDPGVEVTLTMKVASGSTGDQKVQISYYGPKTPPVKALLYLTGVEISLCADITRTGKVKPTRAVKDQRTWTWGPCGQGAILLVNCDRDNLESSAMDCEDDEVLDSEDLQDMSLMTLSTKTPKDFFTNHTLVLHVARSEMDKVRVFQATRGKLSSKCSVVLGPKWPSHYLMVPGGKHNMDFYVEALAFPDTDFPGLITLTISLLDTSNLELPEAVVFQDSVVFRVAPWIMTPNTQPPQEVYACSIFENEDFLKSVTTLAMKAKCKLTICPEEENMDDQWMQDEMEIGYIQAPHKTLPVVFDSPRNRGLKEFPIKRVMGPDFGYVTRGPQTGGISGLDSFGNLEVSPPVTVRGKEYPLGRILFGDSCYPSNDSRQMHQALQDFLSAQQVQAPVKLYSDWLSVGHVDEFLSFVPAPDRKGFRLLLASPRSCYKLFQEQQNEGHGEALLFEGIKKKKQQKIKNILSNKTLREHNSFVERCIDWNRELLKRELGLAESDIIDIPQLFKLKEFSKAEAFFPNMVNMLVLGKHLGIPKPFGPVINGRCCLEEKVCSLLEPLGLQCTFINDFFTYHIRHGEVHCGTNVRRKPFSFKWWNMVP

| IC50 [nM] | SMILES |
| --- | --- |
| 85.7 | COc1cc(C(=O)N2[C@H]3CC[C@@H]2[C@H](N)C3)cc2nc(-c3cc4ccc([C@@H](C)NC(=O)c5cn(C)nn5)nc4n3CC3CC3)c(C)n12 [Example 1, ~{N}-[(1~{R})-1-[2-[7-[(1~{R},2~{R},4~{S})-2-amino-7-azabicyclo[2.2.1]heptane-7-carbonyl]-5-methoxy-3-methylimidazo [1,2-a]pyridin-2-yl]-1-(cyclopropylmethyl)pyrrolo [2,3-b]pyridin-6-yl]ethyl]-1-methyltriazole-4-carboxamide] |
| 86.8 | COc1cc(C(=O)N2[C@H]3CC[C@@H]2[C@H](N)C3)cc2nc(-c3cc4ccc([C@@H](C)NC(=O)N5CCC5)nc4n3CC34CC(C3)C4)c(C)n12 [Example 488] |
| 258 | COc1cc(C(=O)N2CCC3CCNCC32)cc2nc(-c3cc4ccc(N(C(F)F)S(C)(=O)=O)nc4n3CC3CC3)c(C)n12 (centres unmarked) [Example 322, ~{N}-[2-[7-(2,3,3~{a}, 4,5,6,7,7~ {a}-octahydropyrrolo[2,3-c]pyridine-1-carbonyl)-5-methoxy-3-methylimidazo [1,2-a]pyridin-2-yl]-1-(cyclopropylmethyl)pyrrolo [2,3-b]pyridin-6-yl]-~{N}-(difluoromethyl) methanesulfonamide] |
| 10400 | COc1cc(C(=O)N[C@H]2CNCC[C@@H]2C)cc2nc(-c3cc4ccc(N(C(F)F)S(C)(=O)=O)nc4n3CC3CC3)c(C)n12 [Example 282, 2-[1-(cyclopropylmethyl)-6-[difluoromethyl (methylsulfonyl)amino]pyrrolo[2,3-b]pyridin-2-yl]-5-methoxy-3-methyl-~{N}-[(3~{R},4~{S})-4-methylpiperidin-3-yl]imidazo[1,2-a] pyridine-7-carboxamide] |
| 55.6 | COc1cc(C(=O)N2[C@H]3CC[C@@H]2[C@H](N)C3)cc2nc(-c3cc4ccc([C@@H](C)NC(=O)N(C(C)C)C(C)C)nc4n3CC3CC3)c(C)n12 [Example 236, 3-[(1~{R})-1-[2-[7-[(1~{R},2~{R},4~{S})-2-amino-7-azabicyclo[2.2.1]heptane-7-carbonyl]-5-methoxy-3-methylimidazo [1,2-a]pyridin-2-yl]-1-(cyclopropylmethyl)pyrrolo [2,3-b]pyridin-6-yl]ethyl]-1,1-di(propan-2-yl)urea] |
| 936 | CCc1ccc2cc(-c3nc4cc(C(=O)N5CC[C@H]6OCCN[C@H]6C5)cc(OC)n4c3C)n(CC3CC3)c2n1 [Example 591, [(4~{a}~{S},8~{a}~{R})-2,3,4,4~{a},5,7,8,8~{a}-octahydropyrido[4,3-b] [1,4]oxazin-6-yl]-[2-[1-(cyclopropylmethyl)-6-ethylpyrrolo[2,3-b]pyridin-2-yl]-5-methoxy-3-methylimidazo[1,2-a]pyridin-7-yl]methanone] |
| 78.7 | COc1cc(C(=O)N2CCC[C@@H](N)C2)cc2nc(-c3cc4ccc([C@@H](C)NC(=O)C56CC(F)(C5)C6)nc4n3CC3CC3)c(C)n12 [Example 125, ~{N}-[(1~{R})-1-[2-[7-[(3~{R})-3-aminopiperidine-1-carbonyl]-5-methoxy-3-methylimidazo[1,2-a]pyridin-2-yl]-1-(cyclopropylmethyl)pyrrolo[2,3-b]pyridin-6-yl]ethyl]-3-fluorobicyclo[1.1.1] pentane-1-carboxamide] |
| 37.9 | COc1cc(C(=O)N2[C@H]3CC[C@@H]2[C@H](N)C3)cc2nc(-c3cc4ccc([C@@H](C)NC(=O)N5CC(C(F)F)C5)nc4n3CC3CC3)c(C)n12 [Example 206, ~{N}-[(1~{R})-1-[2-[7-[(1~{R},2~{R},4~{S})-2-amino-7-azabicyclo[2.2.1]heptane-7-carbonyl]-5-methoxy-3-methylimidazo [1,2-a]pyridin-2-yl]-1-(cyclopropylmethyl)pyrrolo [2,3-b]pyridin-6-yl]ethyl]-3-(difluoromethyl)azetidine-1-carboxamide] |
| 32000 | CCOC(=O)N(C)c1ccc2cc(-c3nc4cc(C(=O)N5[C@H]6CC[C@@H]5[C@@H](N)CC6)cc(OC)n4c3C)n(CC3CC3)c2n1 [Example 491, ethyl~{N}-[2-[7-[(1~{R}, 2~{S},5~{R})-2-amino-8-azabicyclo[3.2.1]octane-8-carbonyl]-5-methoxy-3-methylimidazo[1,2-a]pyridin-2-yl]-1-(cyclopropylmethyl)pyrrolo [2,3-b]pyridin-6-yl]-~{N}-methylcarbamate] |
| 27900 | COc1cc(C(=O)N2CC[C@H]3CCNC[C@H]32)cc2nc(-c3cc4ccc(N(C(F)F)S(C)(=O)=O)nc4n3CC3CC3)c(C)n12 [Example 415, ~{N}-[2-[7-[(3~{a}~{R},7~{a}~{S})-2,3,3~{a},4,5,6,7,7~{a}-octahydropyrrolo[2,3-c]pyridine-1-carbonyl]-5-methoxy-3-methylimidazo[1,2-a]pyridin-2-yl]-1-(cyclopropylmethyl)pyrrolo [2,3-b]pyridin-6-yl]-~{N}-(difluoromethyl) methanesulfonamide] |
| 56 | COc1cc(C(=O)N2[C@H]3CC[C@@H]2[C@H](N)C3)cc2nc(-c3cc4ccc([C@@H](C)NC(=O)c5cocn5)nc4n3CC3CC3)c(C)n12 [Example 105, ~{N}-[(1~{R})-1-[2-[7-[(1~{R},2~{R},4~{S})-2-amino-7-azabicyclo[2.2.1]heptane-7-carbonyl]-5-methoxy-3-methylimidazo [1,2-a]pyridin-2-yl]-1-(cyclopropylmethyl)pyrrolo [2,3-b]pyridin-6-yl]ethyl]-1,3-oxazole-4-carboxamide] |
| 203 | Cc1c(-c2cc3ccc(N(C(F)F)S(C)(=O)=O)nc3n2CC2CC2)nc2cc(C(=O)N3C[C@H](N)CC[C@@H]3C)ccn12 [Example 402, ~{N}-[2-[7-[(2~{S},5~{R})-5-amino-2-methylpiperidine-1-carbonyl]-3-methylimidazo[1,2-a]pyridin-2-yl]-1-(cyclopropylmethyl)pyrrolo [2,3-b]pyridin-6-yl]-~{N}-(difluoromethyl) methanesulfonamide] |
| 297 | COc1cc(C(=O)N2C[C@H]3CC[C@@H]2[C@@H]3N)cc2nc(-c3cc4ccc([C@@H](C)NC(=O)C(C)(C)C)nc4n3CC3CC3)c(C)n12 [Example 174, N-((R)-1-(2-(7-((1R,4R,7R)-7-amino-2-azabicyclo[2.2.1]heptane-2-carbonyl)-5-methoxy-3-methylimidazo[1,2-a]pyridin-2-yl)-1-(cyclopropylmethyl)-1H-pyrrolo [2,3-b]pyridin-6-yl)ethyl) pivalamide] |
| 67.8 | COc1cc(C(=O)N2[C@H]3CC[C@@H]2[C@H](N)C3)cc2nc(-c3cc4ccc([C@@H](C)N5C(=O)CCC5C)nc4n3CC3CC3)c(C)n12 (some centres unmarked) [Example 269, 1-[(1~{R})-1-[2-[7-[(1~{R},2~{R},4~{S})-2-amino-7-azabicyclo[2.2.1]heptane-7-carbonyl]-5-methoxy-3-methylimidazo [1,2-a]pyridin-2-yl]-1-(cyclopropylmethyl)pyrrolo [2,3-b]pyridin-6-yl]ethyl]-5-methylpyrrolidin-2-one] |
| 4630 | COc1cc(C(=O)N2C[C@H](N)CC[C@@H]2C)cc2nc(-c3cc4ccc(C#N)nc4n3CC3CC3)c(C)n12 [Example 610, 2-[7-[(2~{S},5~{R})-5-amino-2-methylpiperidine-1-carbonyl]-5-methoxy-3-methylimidazo[1,2-a]pyridin-2-yl]-1-(cyclopropylmethyl) pyrrolo[2,3-b] pyridine-6-carbonitrile] |
| 9000 | CCc1ccc2cc(-c3nc4cc(C(=O)N5CCC6(CC6)[C@@H](N)C5)cc(OC)n4c3C)n(CC3CC3)c2n1 [Example 592, [(8~{R})-8-amino-6-azaspiro[2.5]octan-6-yl]-[2-[1-(cyclopropylmethyl)-6-ethylpyrrolo[2,3-b]pyridin-2-yl]-5-methoxy-3-methylimidazo[1,2-a]pyridin-7-yl]methanone] |
| 252 | COc1cc(C(=O)N2[C@H]3CC[C@@H]2[C@H](N)C3)cc2nc(-c3cc4ccc([C@@H](C)N5CCOCC5=O)nc4n3CC3CC3)c(C)n12 [Example 274, 4-[(1~{R})-1-[2-[7-[(1~{R},2~{R},4~{S})-2-amino-7-azabicyclo[2.2.1]heptane-7-carbonyl]-5-methoxy-3-methylimidazo [1,2-a]pyridin-2-yl]-1-(cyclopropylmethyl)pyrrolo [2,3-b]pyridin-6-yl]ethyl]morpholin-3-one] |
| 88.3 | COc1cc(C(=O)N2[C@H]3CC[C@@H]2[C@H](N)C3)cc2nc(-c3cc4ccc([C@@H](C)NC(=O)c5ccon5)nc4n3CC3CC3)c(C)n12 [Example 104, ~{N}-[(1~{R})-1-[2-[7-[(1~{R},2~{R},4~{S})-2-amino-7-azabicyclo[2.2.1]heptane-7-carbonyl]-5-methoxy-3-methylimidazo [1,2-a]pyridin-2-yl]-1-(cyclopropylmethyl)pyrrolo [2,3-b]pyridin-6-yl]ethyl]-1,2-oxazole-3-carboxamide] |

| SMILES | IC50 [nM] |
| --- | --- |
| COc1cc(C(=O)N2[C@H]3CC[C@@H]2[C@H](N)C3)cc2nc(-c3cc4ccc([C@@H](C)NC(=O)Nc5c(C)cccc5C)nc4n3CC3CC3)c(C)n12 [Example 238, 1-[(1~{R})-1-[2-[7-[(1~{R},2~{R},4~{S})-2-amino-7-azabicyclo[2.2.1]heptane-7-carbonyl]-5-methoxy-3-methylimidazo [1,2-a]pyridin-2-yl]-1-(cyclopropylmethyl)pyrrolo [2,3-b]pyridin-6-yl]ethyl]-3-(2,6-dimethylphenyl)urea] | 145 |
| COc1cc(C(=O)N2C[C@H](N)C[C@@H]2C)cc2nc(-c3cc4ccc(N(C(F)F)S(C)(=O)=O)nc4n3CC3CC3)c(C)n12 [Example 354, N-[2-[7-[(2S,4R)-4-amino-2-methyl-pyrrolidine-1-carbonyl]-5-methoxy-3-methyl-imidazo[1,2-a]pyridin-2-yl]-1-(cyclopropylmethyl)pyrrolo[2,3-b]pyridin-6-yl]-N-(difluoromethyl) methanesulfonamide] | 1890 |
